From PubChem BioAssay AID330 (DTP/NCI, 2004)
Several values for one entry are separate records, joined by “and”; a condition that tells them apart may be missing. Identical values can stand only once. Inconclusive results and toxic doses are left out. How the source made its calls: active means survival T/C of 150% or more; inactive means T/C below 125% in these data.

Tested on: P388 leukemia ip, CD2F1 mice, survival T/C
Test: NCI In Vivo Anticancer Drug Screen. Data for tumor model P388 Leukemia (intraperitoneal) in CD2F1 (CDF1) mice
Settings: endpoint: median survival time, higher = longer survival
In short: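 Mice carrying the transplanted tumor received test compound or vehicle. Survival was recorded in each group, and the value is the treated-group measurement divided by that of the vehicle-treated control group.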

[1] = dose: 12.5 mg/kg/injection, schedule: Q01DX009 (ip), vehicle: saline with Tween-80
[2] = dose: 25.0 mg/kg/injection, schedule: Q01DX009 (ip), vehicle: saline with Tween-80
[3] = dose: 50.0 mg/kg/injection, schedule: Q01DX009 (ip), vehicle: saline with Tween-80
[4] = dose: 50.0 mg/kg/injection, schedule: Q01DX005 (ip), vehicle: saline
[5] = dose: 100.0 mg/kg/injection, schedule: Q01DX005 (ip), vehicle: saline
[6] = dose: 200.0 mg/kg/injection, schedule: Q01DX005 (ip), vehicle: saline
[7] = dose: 100.0 mg/kg/injection, schedule: Q01DX001 (ip), vehicle: Klucel (hydroxypropylcellulose) (HPC)
[8] = dose: 200.0 mg/kg/injection, schedule: Q01DX001 (ip), vehicle: Klucel (hydroxypropylcellulose) (HPC)
[9] = dose: 400.0 mg/kg/injection, schedule: Q01DX001 (ip), vehicle: Klucel (hydroxypropylcellulose) (HPC)
[10] = dose: 25.0 mg/kg/injection, schedule: Q01DX009 (ip), vehicle: water
[11] = dose: 50.0 mg/kg/injection, schedule: Q01DX009 (ip), vehicle: water
[12] = dose: 100.0 mg/kg/injection, schedule: Q01DX009 (ip), vehicle: water
[13] = dose: 200.0 mg/kg/injection, schedule: Q01DX009 (ip), vehicle: water

Measured: T/C

Cc1cc(C)n(-c2ccc(N(CCO)CCO)nn2)n1
inactive: dose: 75.0 mg/kg/injection, schedule: Q01DX005 (ip), vehicle: other 93 % of control | dose: 150.0 mg/kg/injection, schedule: Q01DX005 (ip), vehicle: other 88 % of control | dose: 250.0 mg/kg/injection, schedule: Q01DX005 (oral), vehicle: water 103 % of control | dose: 300.0 mg/kg/injection, schedule: Q01DX005 (ip), vehicle: other 93 % of control | dose: 500.0 mg/kg/injection, schedule: Q01DX005 (oral), vehicle: water 116 % of control | dose: 1000.0 mg/kg/injection, schedule: Q01DX005 (oral), vehicle: water 99 % of control

C=C1C(=O)OC2/C=C(\C)CC(O)/C=C(\C)CC(OC(=O)/C(=C\C)COC(C)=O)C12 (configuration not stated)
inactive: dose: 6.25 mg/kg/injection, schedule: Q01DX009 (ip), vehicle: saline with Tween-80 98 % of control | [1] 97 % of control | [2] 104 % of control | [3] 104 % of control

O=C1CN(CCCN2CCOCC2)CC(=O)N2CCCCN12
inactive: [4] 100 % of control | [5] 105 % of control | [6] 102 % of control

NC(CS/C(Cl)=C/Cl)C(=O)O (configuration not stated)
inactive: dose: 12.0 mg/kg/injection, schedule: Q01DX009 (ip), vehicle: saline with Tween-80 117 % of control | dose: 27.0 mg/kg/injection, schedule: Q01DX009 (ip), vehicle: saline with Tween-80 117 % of control

Cc1ccc(-c2nc3sccn3c2C=O)cc1
inactive: [7] 95 % of control | [8] 96 % of control | [9] 96 % of control

CN(C)Cc1ccc(C(C)(C)C)cc1Br
inactive: dose: 12.5 mg/kg/injection, schedule: Q01DX009 (ip), vehicle: water 97 % of control | [10] 95 % of control | [11] 99 % of control | [12] 95 % of control | [13] 89 % of control

O=C(/C=C/C1CCCC(O)C1)C1CCCCC1 (configuration not stated)
inactive: dose: 50.0 mg/kg/injection, schedule: Q01DX005 (ip), vehicle: saline with Tween-80 91 % of control | dose: 100.0 mg/kg/injection, schedule: Q01DX005 (ip), vehicle: saline with Tween-80 89 % of control | dose: 200.0 mg/kg/injection, schedule: Q01DX005 (ip), vehicle: saline with Tween-80 91 % of control

COC(=O)c1noc2c1CSc1ccccc1-2
inactive: dose: 100.0 mg/kg/injection, schedule: Q04DX002 (ip), vehicle: saline with Tween-80 104 % of control | dose: 200.0 mg/kg/injection, schedule: Q04DX002 (ip), vehicle: saline with Tween-80 99 % of control

CC(C)(C)NCC(O)c1ccc(O)c(CO)n1 (configuration not stated)
inactive: [4] 95 % of control | [5] 102 % of control | [6] 95 % of control

Cn1c(=O)c2cc(O)cnc2n(C)c1=O
inactive: dose: 100.0 mg/kg/injection, schedule: Q04DX003 (ip), vehicle: saline with Tween-80 95 % of control | dose: 200.0 mg/kg/injection, schedule: Q04DX003 (ip), vehicle: saline with Tween-80 91 % of control | dose: 400.0 mg/kg/injection, schedule: Q04DX003 (ip), vehicle: saline with Tween-80 86 % of control

CNC(=O)CCC(NS(=O)(=O)c1ccc(NC(C)=O)cc1)C(=O)O (configuration not stated)
inactive: [7] 105 % of control | [8] 98 % of control | [9] 100 % of control

ClC1CCCC[N-]1.ClC1CCCC[N-]1.[Cl][Pt+2][Cl] (configuration not stated)
inactive: [1] 109 % of control | [2] 103 % of control | [3] 101 % of control | dose: 100.0 mg/kg/injection, schedule: Q01DX009 (ip), vehicle: saline with Tween-80 97 % of control | dose: 200.0 mg/kg/injection, schedule: Q01DX009 (ip), vehicle: saline with Tween-80 99 % of control

O=c1ccn(C2OC(CO)C(O)C2O)c(=O)[nH]1 (configuration not stated)
inactive: [10] 100 % of control | dose: 32.0 mg/kg/injection, schedule: Q01DX009 (ip), vehicle: Klucel (hydroxypropylcellulose) (HPC) 90 % of control | dose: 32.0 mg/kg/injection, schedule: Q01DX009 (ip), vehicle: saline 86 % of control and 87 % of control | dose: 50.0 mg/kg/injection, schedule: Q01DX009 (ip), vehicle: saline 108 % of control | [11] 100 % of control | dose: 64.0 mg/kg/injection, schedule: Q01DX009 (ip), vehicle: Klucel (hydroxypropylcellulose) (HPC) 90 % of control | dose: 100.0 mg/kg/injection, schedule: Q01DX009 (ip), vehicle: saline 94 % of control and 115 % of control | [12] 106 % of control | dose: 128.0 mg/kg/injection, schedule: Q01DX009 (ip), vehicle: Klucel (hydroxypropylcellulose) (HPC) 88 % of control | dose: 200.0 mg/kg/injection, schedule: Q01DX009 (ip), vehicle: saline 94 % of control and 112 % of control | [13] 106 % of control | dose: 256.0 mg/kg/injection, schedule: Q01DX009 (ip), vehicle: Klucel (hydroxypropylcellulose) (HPC) 98 % of control | dose: 400.0 mg/kg/injection, schedule: Q01DX009 (ip), vehicle: saline 103 % of control and 100 % of control | dose: 400.0 mg/kg/injection, schedule: Q01DX009 (ip), vehicle: water 108 % of control | dose: 512.0 mg/kg/injection, schedule: Q01DX009 (ip), vehicle: Klucel (hydroxypropylcellulose) (HPC) 98 % of control | dose: 800.0 mg/kg/injection, schedule: Q01DX009 (ip), vehicle: saline 98 % of control | dose: 1024.0 mg/kg/injection, schedule: Q01DX009 (ip), vehicle: saline 100 % of control and 89 % of control | dose: 1600.0 mg/kg/injection, schedule: Q01DX009 (ip), vehicle: saline 98 % of control

Cc1cc(=O)oc2c3c(c4c(c12)OC(C)(C)C=C4)OC(C)(C)C=C3
inactive: dose: 60.0 mg/kg/injection, schedule: Q01DX005 (ip), vehicle: saline with Tween-80 89 % of control | dose: 120.0 mg/kg/injection, schedule: Q01DX005 (ip), vehicle: saline with Tween-80 88 % of control

Cn1c(O)c2c(c1O)C(=Nc1ccccc1)c1ccccc1C2=O
inactive: dose: 50.0 mg/kg/injection, schedule: Q01DX005 (ip), vehicle: Klucel (hydroxypropylcellulose) (HPC) 86 % of control | dose: 100.0 mg/kg/injection, schedule: Q01DX005 (ip), vehicle: Klucel (hydroxypropylcellulose) (HPC) 89 % of control | dose: 200.0 mg/kg/injection, schedule: Q01DX005 (ip), vehicle: Klucel (hydroxypropylcellulose) (HPC) 94 % of control

CCOC(=O)Cc1cc2c(cc1C)CN=C(OCC)C2
inactive: dose: 6.25 mg/kg/injection, schedule: Q01DX009 (ip), vehicle: distilled water + Tween-80 100 % of control | dose: 12.5 mg/kg/injection, schedule: Q01DX009 (ip), vehicle: distilled water + Tween-80 103 % of control | dose: 25.0 mg/kg/injection, schedule: Q01DX009 (ip), vehicle: distilled water + Tween-80 94 % of control | dose: 50.0 mg/kg/injection, schedule: Q01DX009 (ip), vehicle: distilled water + Tween-80 91 % of control | dose: 100.0 mg/kg/injection, schedule: Q01DX009 (ip), vehicle: distilled water + Tween-80 91 % of control | dose: 200.0 mg/kg/injection, schedule: Q01DX009 (ip), vehicle: distilled water + Tween-80 90 % of control | dose: 400.0 mg/kg/injection, schedule: Q01DX009 (ip), vehicle: distilled water + Tween-80 100 % of control
